Test results from US7354711B2, “Methods for inhibiting immunostimulatory DNA associated responses” (University of Iowa Research Foundation, priority 1997, dated 2008).

Tested on: WEHI 231 cells
Assay: Inhibition of CpG-ODN 1760 protection against α-sIgM-induced inhibition of [3H] thymidine uptake
Type: cell-based, mouse
Conditions: for vs. Chloroquine, fold / Activity,-log10 (concentration (M) for half maximal inhibition of CpG-ODN effect on [3H] thymidine uptake in the presence of α-sIgM): Table 3, 9-aminoacridines; for Activity,-log10 (concentration (M) for half maximal inhibition of CpG-ODN effect on [3H] thymidine uptake in the presence of α-sIgM) / Activity: -log10 of the concentration (M) required for half maximal inhibition of CpG-ODN effect on [3H] thymidine uptake in the presence of α-sIgM: WEHI 231 cells; for Fold: activity expressed as a fraction of activity of chloroquine / Activity: -log10 of the concentration (M) required for half maximal inhibition of CpG-ODN effect on [3H] thymidine uptake in the presence of α-sIgM: Table 2, 4-aminoquinolines; for Effect on CpG-ODN action (FIG. 1): at concentrations less than 10 μM
Method: The assay of [^3H] Thymidine incorporation was carried out as follows. WEHI 231 cells (200 μL at 2×10^5/milliliter, in duplicate or triplicate) were incubated in a 96-well plate (Costar, Cambridge Mass.). Additions were made as indicated. After incubating for 16 hours, 0.5 μCi [methyl-^3H] thymidine (2 Ci/millimole, DuPont NEN, Boston Mass.) was added to each well, and the cells were incubated for another 4 hours. Cellular DNA was then captured onto glass fiber filters (Whatman 934AH) using a cell harvester (Brandel, Gaithersberg Md.). The filters were dried, placed into plastic scintillation vials with 10 milliliters of scintillation cocktail (EconoSafe, Research Products International, Mount Prospect Ill.), and counted in a liquid scintillation counter (Beckman LS-3133 T). The ^3H recovered on the filter was expressed as a fraction of the ^3H added.
Referring to experiments summarized in FIG. 1, WEHI 231 cells (ca. 2×10^5 per milliliter) were incubated for 16 hours at 37° C. with 10 μgrams/milliliter α-sIgM, 6 μgrams/milliliter ODN 1760, and the indicated concentration of the compound. After 16 hours, 0.5 μCi [^3H] thymidine was added. After 4 more hours incubation, the cellular DNA was harvested onto glass fiber filters. The dry filters were counted in a liquid scintillation counter.
Each experimental point was the mean of at least duplicate measurements.
Referring to the experiments summarized in FIG. 3, 10 μgrams/milliliter α-sIgM and the indicated concentrations of ODN 1760 and quinacrine were added simultaneously to WEHI 231 cells. Thymidine incorporation was estimated at 16 hours as described for Example 1.
Referring to the experiments summarized in FIG. 4, WEHI 231 cells were incubated with α-sIgM and ODN 1760. At times thereafter 0.1 μM quinacrine was added (data shown in the left three bars). Cells were incubated with 10 μgrams/milliliter (α-sIgM and ODN 1760 (6 μgrams/milliliter, phosphorothioate or a phosphodiester ODN with the same sequence as 1760 (PD ODN) (30 μM at time 0 hours and 8 hours; data represented in right six bars in FIG. 4). [^3H] thymidine incorporation was estimated at 16 hours.
The symbol — indicates no change. Me and Et indicate —CH3 and —CH2CH3 respectively. Aromatic substituents are in the para position except as indicated. The activity is —log10 of the concentration (M) required for half maximal inhibition of CpG-ODN effect on [^3H] thymidine uptake in the presence of α-sIgM.

Structure (SMILES)	Fold: activity expressed as a fraction of activity of chloroquine	Activity: -log10 of the concentration (M) required for half maximal inhibition of CpG-ODN effect on [3H] thymidine uptake in the presence of α-sIgM	also measured
CCN(CC)CCCC(Nc1c2ccc(Cl)cc2nc2ccc(OC)cc12)c1ccc(Cl)cc1 (stereo not drawn) [compound 28]	–	–	vs. Chloroquine, fold: 1.82 fold; Activity,-log10 (concentration (M) for half maximal inhibition of CpG-ODN effect on [3H] thymidine uptake in the presence of α-sIgM): 7.22
CCN(CC)CCCC(Nc1c2ccc(Cl)cc2nc2ccc(OC)cc12)c1cccc2ccccc12 (stereo not drawn) [compound 29]	–	–	vs. Chloroquine, fold: 1.91 fold; Activity,-log10 (concentration (M) for half maximal inhibition of CpG-ODN effect on [3H] thymidine uptake in the presence of α-sIgM): 7.24
CCN(CC)CCCC(Nc1c2ccc(Cl)cc2nc2ccc(OC)cc12)c1ccc(OC)cc1 (stereo not drawn) [compound 30]	–	–	vs. Chloroquine, fold: 2.09 fold; Activity,-log10 (concentration (M) for half maximal inhibition of CpG-ODN effect on [3H] thymidine uptake in the presence of α-sIgM): 7.28
CCN(CC)CCCC(C)Nc1c(C)cnc2cc(Cl)c(C)cc12 (stereo not drawn) [compound 32]	2.57 fold	7.37	–
CCN(CC)CCCC(CNc1ccnc2cc(Cl)ccc12)c1ccc(Cl)cc1 (stereo not drawn) [compound 33]	2.95 fold	7.43	–
CCN(CC)CC(CNc1ccnc2cc(Cl)ccc12)c1ccc(OC)cc1 (stereo not drawn) [compound 34]	5.04 fold	7.66	–
CCN(CC)CCCCNc1c(C)cnc2cc(Cl)ccc12 [compound 35]	0.81 fold	6.87	–
CCN(CC)CCCC(C)Nc1ccnc2cc(C)ccc12 (stereo not drawn) [compound 37]	0.03 fold	5.50	–
CCN(CC)CCCC(C)Nc1c(C)c(C)nc2ccccc12 (stereo not drawn) [compound 39]	0.04 fold	5.58	–
CCN(CC)CCCC(C)Nc1c(C)cnc2cccc(C)c12 (stereo not drawn) [compound 40]	0.23 fold	6.32	–
CCN(CC)CCCC(C)Nc1c(C)cnc2cc(OC)ccc12 (stereo not drawn) [compound 41]	0.28 fold	6.64	–
CCN(CC)CCCC(C)Nc1ccnc2ccc(Oc3ccccc3)cc12 (stereo not drawn) [compound 42]	1.48 fold	7.13	–
CCN(CC)CCCC(C)Nc1ccnc2cc(Cl)c(SCc3ccccc3)cc12 (stereo not drawn) [compound 43]	4.57 fold	7.62	–
CCN(CC)CCCC(C)Nc1cc(-c2ccccc2)nc2cc(OC)ccc12 (stereo not drawn) [compound 44]	3.63 fold	7.52	–
CCN(CC)CCCC(C)Nc1c(C)cnc2cc(Cl)c(C)cc12 (stereo not drawn) [compound 46]	0.21 fold	6.28	–
OC1CCCC1Nc1ccnc2cc(Cl)ccc12 (stereo not drawn) [compound 47]	0.02 fold	5.25	–
CCN(CC)CCCC(C)Nc1cc(-c2ccccc2)nc2cc(Cl)ccc12 (stereo not drawn) [compound 48]	2.14 fold	7.29	–

Structure (SMILES)	Fold: activity expressed as a fraction of activity of chloroquine	Activity: -log10 of the concentration (M) required for half maximal inhibition of CpG-ODN effect on [3H] thymidine uptake in the presence of α-sIgM	also measured
CCN(CC)CCCC(C)Nc1ccnc2cc(Oc3ccccc3)ccc12 (stereo not drawn) [compound 50]	0.74 fold	6.83	–
CCN(CC)CCCC(C)Nc1ccnc2ccc(-c3ccccc3)cc12 (stereo not drawn) [compound 51]	1.62 fold	7.17	–
CCN(CC)CC=CC(C)Nc1ccnc2cc(Cl)ccc12 (stereo not drawn) [compound 53]	0.81 fold	6.87	–
CCN(CC)CCCC(CCl)Nc1ccnc2cc(Cl)ccc12 (stereo not drawn) [compound 56]	1.45 fold	7.12	–
COc1ccc2nc3cc(Cl)ccc3c(NCCCNCCCCNCCCNc3c4ccc(Cl)cc4nc4ccc(OC)cc34)c2c1 [compound 58, bis-(6-chloro-2-methoxy-9-acridinyl)spermine]	–	–	vs. Chloroquine, fold: 0.26 fold; Activity,-log10 (concentration (M) for half maximal inhibition of CpG-ODN effect on [3H] thymidine uptake in the presence of α-sIgM): 6.38
COc1ccc2nc3cc(Cl)ccc3c(N)c2c1 [compound 59, 9-amino-6-chloro-2-methoxyacridine]	–	–	vs. Chloroquine, fold: 1.00 fold; Activity,-log10 (concentration (M) for half maximal inhibition of CpG-ODN effect on [3H] thymidine uptake in the presence of α-sIgM): 6.96
CCN(CC)CCC(CNc1ccnc2cc(Cl)ccc12)c1ccc(OC)cc1 (stereo not drawn) [compound 61]	0.79 fold	6.86	–
CCN(CC)CCCC(C)Nc1c(C)cnc2cccc(Br)c12 (stereo not drawn) [compound 62]	0.35 fold	6.51	–
CCN(CC)CCCC(C)Nc1c(C)cnc2c(OC)c(Cl)ccc12 (stereo not drawn) [compound 63]	0.10 fold	5.95	–
CCN(CC)CCCC(C)Nc1ccnc2cc(Oc3ccccc3)ccc12 (stereo not drawn) [compound 64]	0.62 fold	6.75	–
CCN(CC)CCC(CNc1c(C)cnc2cc(Cl)ccc12)c1ccc(Cl)c(Cl)c1 (stereo not drawn) [compound 65]	0.58 fold	6.72	–
CN(C)C(C)(C)CCCNc1ccnc2cc(Cl)ccc12 [compound 68]	0.81 fold	6.87	–
CCOc1cc2c(NC(C)CCCN(CC)CC)c(C)cnc2cc1Cl (stereo not drawn) [compound 71]	0.09 fold	5.90	–
CCN(CCO)CCCC(C)Nc1ccnc2cc(Cl)ccc12 (stereo not drawn) [hydroxychloroquine, reference compound]	–	–	Inhibition of the CpG-ODN effect (FIG. 1) (at nanomolar concentrations, 10 μg/mL α-sIgM, 6 μg/mL ODN 1760): completely inhibited
COc1cc(NC(C)CCCN)c2ncccc2c1 (stereo not drawn) [primaquine, reference compound]	–	–	Effect on CpG-ODN action (FIG. 1): little effect
C=C[C@H]1C[N@@]2CC[C@H]1C[C@H]2[C@H](O)c1ccnc2ccc(OC)cc12 [quinine, reference compound]	–	–	Effect on CpG-ODN action (FIG. 1): little effect
